According to US20070287752A1, “Ophthalmic Compositions Comprising A Branched, Glycerol Compound” (priority 2006, published 2007):

Key:
Test in all cases: Preservative/disinfectant system efficacy testing (log reduction)
Type in all cases: cell-based
[1] = tested on: Pseudomonas aeruginosa (ATCC 9027)
Experimental: (§1) The ophthalmic compositions are evaluated in accordance with specific procedures outlined by the US Food & Drug Administration and the International Organization for Standardization for the testing of microbiocidal efficacy.

[2] = tested on: Serratia marcescens (ATCC 13880)
Experimental: as §1

[3] = tested on: Staphylococcus aureus (ATCC 6538)
Experimental: as §1

[4] = tested on: Fusarium solani (ATCC 36031)
Experimental: as §1

[5] = 1 hr, Table 5A multi-purpose lens care solution, 10% organic soil, disinfectant concentrations as in label
[6] = 1 hr, phosphate buffered saline, 10% organic soil, concentrations as in label (Table 4)
[7] = 4 hr, Table 5A multi-purpose lens care solution, 10% organic soil, disinfectant concentrations as in label
[8] = 4 hr, phosphate buffered saline, 10% organic soil, concentrations as in label (Table 4)
[9] = EHOPD 0.0001 wt %, 1 hr, borate buffered saline, 10% organic soil
[10] = EHOPD 0.0001 wt %, 1 hr, phosphate buffered saline, 10% Organic Soil
[11] = EHOPD 0.0001 wt %, 4 hr, borate buffered saline, 10% organic soil
[12] = EHOPD 0.0001 wt %, 4 hr, phosphate buffered saline, 10% Organic Soil
[13] = EHOPD 0.001 wt %, 1 hr, borate buffered saline, 10% organic soil
[14] = EHOPD 0.001 wt %, 1 hr, phosphate buffered saline, 10% Organic Soil
[15] = EHOPD 0.001 wt %, 4 hr, borate buffered saline, 10% organic soil
[16] = EHOPD 0.001 wt %, 4 hr, phosphate buffered saline, 10% Organic Soil
[17] = EHOPD 0.01 wt %, 1 hr, Table 3A multi-purpose lens care formulation, 10% organic soil
[18] = EHOPD 0.01 wt %, 1 hr, borate buffered saline, 10% organic soil
[19] = EHOPD 0.01 wt %, 1 hr, phosphate buffered saline, 10% Organic Soil
[20] = EHOPD 0.01 wt %, 4 hr, Table 3A multi-purpose lens care formulation, 10% organic soil
[21] = EHOPD 0.01 wt %, 4 hr, borate buffered saline, 10% organic soil
[22] = EHOPD 0.01 wt %, 4 hr, phosphate buffered saline, 10% Organic Soil
[23] = EHOPD 0.1 wt %, 1 hr, Table 3A multi-purpose lens care formulation, 10% organic soil
[24] = EHOPD 0.1 wt %, 1 hr, borate buffered saline, 10% organic soil
[25] = EHOPD 0.1 wt %, 1 hr, phosphate buffered saline, 10% Organic Soil
[26] = EHOPD 0.1 wt %, 4 hr, Table 3A multi-purpose lens care formulation, 10% organic soil
[27] = EHOPD 0.1 wt %, 4 hr, borate buffered saline, 10% organic soil
[28] = EHOPD 0.1 wt %, 4 hr, phosphate buffered saline, 10% Organic Soil
[29] = EHOPD 0.15 wt %, 1 hr, Table 3A multi-purpose lens care formulation, 10% organic soil
[30] = EHOPD 0.15 wt %, 4 hr, Table 3A multi-purpose lens care formulation, 10% organic soil
[31] = EHOPD 0.25 wt %, 1 hr, Table 3A multi-purpose lens care formulation, 10% organic soil
[32] = EHOPD 0.25 wt %, 4 hr, Table 3A multi-purpose lens care formulation, 10% organic soil
[33] = EHOPD 0.50 wt %, 1 hr, Table 3A multi-purpose lens care formulation, 10% organic soil
[34] = EHOPD 0.5 wt %, 1 hr, borate buffered saline, 10% organic soil
[35] = EHOPD 0.5 wt %, 1 hr, phosphate buffered saline, 10% Organic Soil
[36] = EHOPD 0.50 wt %, 4 hr, Table 3A multi-purpose lens care formulation, 10% organic soil
[37] = EHOPD 0.5 wt %, 4 hr, borate buffered saline, 10% organic soil
[38] = EHOPD 0.5 wt %, 4 hr, phosphate buffered saline, 10% Organic Soil
[39] = EHOPD 0.75 wt %, 1 hr, Table 3A multi-purpose lens care formulation, 10% organic soil
[40] = EHOPD 0.75 wt %, 4 hr, Table 3A multi-purpose lens care formulation, 10% organic soil
[41] = EHOPD 1.0 wt %, 1 hr, Table 3A multi-purpose lens care formulation, 10% organic soil
[42] = EHOPD 1.0 wt %, 4 hr, Table 3A multi-purpose lens care formulation, 10% organic soil

## CCCCC(CC)COCC(O)CO (centres unmarked) [EHOPD, 3-[(2-ethylhexyl)oxy]-1,2-propanediol]
[1]; [5]
  log reduction P. aeruginosa: 1.4
[1]; [6]
  log reduction P. aeruginosa: 1.5
[1]; [7]
  log reduction P. aeruginosa: 1.4
[1]; [8]
  log reduction P. aeruginosa: 1.5
[1]; [9]
  log reduction P. aeruginosa: 1.5
[1]; [10]
  log reduction P. aeruginosa: 1.5
[1]; [11]
  log reduction P. aeruginosa: 1.5
[1]; [12]
  log reduction P. aeruginosa: 1.5
[1]; [13]
  log reduction P. aeruginosa: 1.5
[1]; [14]
  log reduction P. aeruginosa: 1.5
[1]; [15]
  log reduction P. aeruginosa: 1.5
[1]; [16]
  log reduction P. aeruginosa: 1.5
[1]; [17]
  log reduction P. aeruginosa: 1.9
[1]; [18]
  log reduction P. aeruginosa: 2.6
[1]; [19]
  log reduction P. aeruginosa: 1.5
[1]; [20]
  log reduction P. aeruginosa: 1.9
[1]; [21]
  log reduction P. aeruginosa: >5.0
[1]; [22]
  log reduction P. aeruginosa: 1.5
[1]; [23]
  log reduction P. aeruginosa: >5.4
[1]; [24]
  log reduction P. aeruginosa: >5.0
[1]; [25]
  log reduction P. aeruginosa: 1.5
[1]; [26]
  log reduction P. aeruginosa: >5.4
[1]; [27]
  log reduction P. aeruginosa: >5.0
[1]; [28]
  log reduction P. aeruginosa: 3.7
[1]; [29]
  log reduction P. aeruginosa: >5.4
[1]; [30]
  log reduction P. aeruginosa: >5.4
[1]; [31]
  log reduction P. aeruginosa: >5.4
[1]; [32]
  log reduction P. aeruginosa: >5.4
[1]; [33]
  log reduction P. aeruginosa: >5.4
[1]; [34]
  log reduction P. aeruginosa: >5.0
[1]; [35]
  log reduction P. aeruginosa: 1.5
[1]; [36]
  log reduction P. aeruginosa: >5.4
[1]; [37]
  log reduction P. aeruginosa: >5.0
[1]; [38]
  log reduction P. aeruginosa: 4.1
[1]; [39]
  log reduction P. aeruginosa: >5.4
[1]; [40]
  log reduction P. aeruginosa: >5.4
[1]; [41]
  log reduction P. aeruginosa: >5.4
[1]; [42]
  log reduction P. aeruginosa: >5.4
[2]; [5]
  log reduction S. marcescens: 2.3
[2]; [6]
  log reduction S. marcescens: 3.0
[2]; [7]
  log reduction S. marcescens: 3.3
[2]; [8]
  log reduction S. marcescens: 3.9
[2]; [9]
  log reduction S. marcescens: 1.7
[2]; [10]
  log reduction S. marcescens: 1.7
[2]; [11]
  log reduction S. marcescens: 1.7
[2]; [12]
  log reduction S. marcescens: 1.7
[2]; [13]
  log reduction S. marcescens: 1.7
[2]; [14]
  log reduction S. marcescens: 1.7
[2]; [15]
  log reduction S. marcescens: 1.7
[2]; [16]
  log reduction S. marcescens: 3.2
[2]; [17]
  log reduction S. marcescens: 2.0
[2]; [18]
  log reduction S. marcescens: 1.7
[2]; [19]
  log reduction S. marcescens: >5.2
[2]; [20]
  log reduction S. marcescens: 2.0
[2]; [21]
  log reduction S. marcescens: 1.7
[2]; [22]
  log reduction S. marcescens: >5.2
[2]; [23]
  log reduction S. marcescens: 2.0
[2]; [24]
  log reduction S. marcescens: 4.8
[2]; [25]
  log reduction S. marcescens: >5.2
[2]; [26]
  log reduction S. marcescens: 2.0
[2]; [27]
  log reduction S. marcescens: >5.2
[2]; [28]
  log reduction S. marcescens: >5.2
[2]; [29]
  log reduction S. marcescens: 2.0
[2]; [30]
  log reduction S. marcescens: 4.7
[2]; [31]
  log reduction S. marcescens: >5.4
[2]; [32]
  log reduction S. marcescens: >5.4
[2]; [33]
  log reduction S. marcescens: >5.4
[2]; [34]
  log reduction S. marcescens: 4.9
[2]; [35]
  log reduction S. marcescens: >5.2
[2]; [36]
  log reduction S. marcescens: >5.4
[2]; [37]
  log reduction S. marcescens: >5.2
[2]; [38]
  log reduction S. marcescens: >5.2
[2]; [39]
  log reduction S. marcescens: >5.4
[2]; [40]
  log reduction S. marcescens: >5.4
[2]; [41]
  log reduction S. marcescens: >5.4
[2]; [42]
  log reduction S. marcescens: >5.4
[3]; [5]
  log reduction S. aureus: 1.2
[3]; [6]
  log reduction S. aureus: 1.2
[3]; [7]
  log reduction S. aureus: 1.2
[3]; [8]
  log reduction S. aureus: 1.3
[3]; [9]
  log reduction S. aureus: 1.4
[3]; [10]
  log reduction S. aureus: 1.4
[3]; [11]
  log reduction S. aureus: 1.4
[3]; [12]
  log reduction S. aureus: 1.4
[3]; [13]
  log reduction S. aureus: 1.4
[3]; [14]
  log reduction S. aureus: 1.4
[3]; [15]
  log reduction S. aureus: 1.4
[3]; [16]
  log reduction S. aureus: 1.4
[3]; [17]
  log reduction S. aureus: 1.4
[3]; [18]
  log reduction S. aureus: 1.4
[3]; [19]
  log reduction S. aureus: 1.4
[3]; [20]
  log reduction S. aureus: 1.4
[3]; [21]
  log reduction S. aureus: 1.4
[3]; [22]
  log reduction S. aureus: 1.4
[3]; [23]
  log reduction S. aureus: 1.4
[3]; [24]
  log reduction S. aureus: 1.7
[3]; [25]
  log reduction S. aureus: 1.4
[3]; [26]
  log reduction S. aureus: 1.4
[3]; [27]
  log reduction S. aureus: 4.0
[3]; [28]
  log reduction S. aureus: 3.0
[3]; [29]
  log reduction S. aureus: 1.4
[3]; [30]
  log reduction S. aureus: 1.4
[3]; [31]
  log reduction S. aureus: 1.4
[3]; [32]
  log reduction S. aureus: 1.4
[3]; [33]
  log reduction S. aureus: 1.4
[3]; [34]
  log reduction S. aureus: 1.8
[3]; [35]
  log reduction S. aureus: 1.4
[3]; [36]
  log reduction S. aureus: 1.8
[3]; [37]
  log reduction S. aureus: 4.3
[3]; [38]
  log reduction S. aureus: 3.1
[3]; [39]
  log reduction S. aureus: 1.6
[3]; [40]
  log reduction S. aureus: 3.1
[3]; [41]
  log reduction S. aureus: 2.2
[3]; [42]
  log reduction S. aureus: 3.7
[4]; [5]
  log reduction F. solani: 3.1
[4]; [6]
  log reduction F. solani: 2.5
[4]; [7]
  log reduction F. solani: 5.0
[4]; [8]
  log reduction F. solani: 5.0
[4]; [9]
  log reduction F. solani: 1.3
[4]; [10]
  log reduction F. solani: 2.3
[4]; [11]
  log reduction F. solani: 2.1
[4]; [12]
  log reduction F. solani: 2.3
[4]; [13]
  log reduction F. solani: 1.9
[4]; [14]
  log reduction F. solani: 1.8
[4]; [15]
  log reduction F. solani: 1.9
[4]; [16]
  log reduction F. solani: 2.9
[4]; [17]
  log reduction F. solani: 0.3
[4]; [18]
  log reduction F. solani: 2.4
[4]; [19]
  log reduction F. solani: 3.6
[4]; [20]
  log reduction F. solani: 0.5
[4]; [21]
  log reduction F. solani: >5.8
[4]; [22]
  log reduction F. solani: >5.8
[4]; [23]
  log reduction F. solani: 0.3
[4]; [24]
  log reduction F. solani: >5.8
[4]; [25]
  log reduction F. solani: >5.8
[4]; [26]
  log reduction F. solani: 0.5
[4]; [27]
  log reduction F. solani: >5.8
[4]; [28]
  log reduction F. solani: >5.8
[4]; [29]
  log reduction F. solani: 0.5
[4]; [30]
  log reduction F. solani: >4.7
[4]; [31]
  log reduction F. solani: 0.8
[4]; [32]
  log reduction F. solani: >4.7
[4]; [33]
  log reduction F. solani: >4.7
[4]; [34]
  log reduction F. solani: >5.8
[4]; [35]
  log reduction F. solani: >5.8
[4]; [36]
  log reduction F. solani: >4.7
[4]; [37]
  log reduction F. solani: >5.8
[4]; [38]
  log reduction F. solani: >5.8
[4]; [39]
  log reduction F. solani: >4.7
[4]; [40]
  log reduction F. solani: >4.7
[4]; [41]
  log reduction F. solani: >4.7
[4]; [42]
  log reduction F. solani: >4.7
